Results as given in patent US7041682B2, “NK1 antagonists” (Schering Corporation, priority 2002, dated 2006).
Several values for one entry are separate records, joined by “and”; a condition that tells them apart may be missing. Equal entries are not always repeated.

Target: NK1 receptor (Homo sapiens, UniProt P25103)
Assay: NK1 receptor binding: inhibition of the NK1 agonist Substance P, Ki from percent of maximum specific binding
Conditions: inhibition constant from the concentration giving 50% inhibition of binding (Chang-Prusoff equation)
Description: The in vitro and in vivo NK1, NK2 and NK3 activities of the compounds having the formula (I) can be determined by various procedures known in the art, such as a test for their ability to inhibit the activity of the NK1 agonist Substance P. The percent inhibition of neurokinin agonist activity is the difference between the percent of maximum specific binding (“MSB”) and 100%. The percent of MSB is defined by the following equation, wherein “dpm” represents “disintegrations per minute”:
[formula] The concentration at which the compound produces 50% inhibition of binding is then used to determine an inhibition constant (“Ki”) using the Chang-Prusoff equation. In vivo activity may be measured by inhibition of an agonist-induced foot tapping in a gerbil, as described in Science, 281, 1640–1695 (1998), which is herein incorporated by reference thereto.

NK1 receptor, sequence (P25103 whole entry, species assumed): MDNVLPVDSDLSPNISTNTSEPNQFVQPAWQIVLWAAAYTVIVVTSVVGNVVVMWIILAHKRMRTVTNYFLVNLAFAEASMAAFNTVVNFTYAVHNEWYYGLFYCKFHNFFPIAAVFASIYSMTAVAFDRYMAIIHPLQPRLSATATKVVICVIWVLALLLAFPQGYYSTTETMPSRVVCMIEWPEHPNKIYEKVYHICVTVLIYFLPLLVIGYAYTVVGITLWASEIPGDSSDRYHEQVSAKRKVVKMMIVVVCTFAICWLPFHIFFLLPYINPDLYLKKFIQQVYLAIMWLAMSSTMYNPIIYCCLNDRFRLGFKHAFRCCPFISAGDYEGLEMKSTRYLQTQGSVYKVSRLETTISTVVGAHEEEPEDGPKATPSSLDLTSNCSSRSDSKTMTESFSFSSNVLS

| Structure (SMILES) | Ki |
| --- | --- |
| O=C1CCCN1N1CCC(COC(CO)c2cc(C(F)(F)F)cc(C(F)(F)F)c2)(c2ccccc2)CC1 (centres unmarked) [Example 57] | 0.3 to 3 nM |
| C[C@@H](OCC1(c2ccccc2)CCN(N2CCCC2=O)CC1)c1cc(C(F)(F)F)cc(C(F)(F)F)c1 [Example 56] | 0.3 to 3 nM and ~0.3 nM |
| O=c1[nH]ncn1N1CCC(COCc2cc(C(F)(F)F)cc(C(F)(F)F)c2)(c2ccccc2)CC1 [Example 64] | 0.3 to 3 nM |
| O=C1CCCN1N1CCC(COCc2cc(C(F)(F)F)cc(C(F)(F)F)c2)(c2ccccc2)CC1 [Example 49] | 0.3 to 3 nM |
| O=C1NCCN1N1CCC(COCc2cc(C(F)(F)F)cc(C(F)(F)F)c2)(c2ccccc2)CC1 [Example 51] | 0.3 to 3 nM |
